Data reported in patent publication EP3262942A1, “SELENODIARYLS FOR USE AS MICROBICIDE OR AS MEDICINE” (Evonik Degussa GmbH, priority 2016, dated 2018).

How the values were obtained:
[1] = test system: Candida albicans; test: Growth test in microtiter plates, HA medium, 24 h, visual evaluation; assay type: cell-based; set-up: key: +: kein Wachstum im Vergleich zur Wachstumskontrolle; -: Wachstum wie Wachstumskontrolle
[2] = test system: Mucor miehei; test: as above; assay type: cell-based; set-up: key to Aktivität gegenüber M. miehei: +: kein Wachstum im Vergleich zur Wachstumskontrolle; -: Wachstum wie Wachstumskontrolle
[3] = test system: Penicillium notatum; test: as above; assay type: cell-based; set-up: key: +: kein Wachstum im Vergleich zur Wachstumskontrolle; -: Wachstum wie Wachstumskontrolle
[4] = test system: Paecilomyces variotii; test: as above; assay type: cell-based; set-up: key: +: kein Wachstum im Vergleich zur Wachstumskontrolle; -: Wachstum wie Wachstumskontrolle
[5] = test system: M. grisea H2O; test: microbe, parasite or virus in culture; assay type: cell-based, Magnaporthe grisea; settings: for inhibition of growth at 5 µg/mL / inhibition of growth at 10 µg/mL / inhibition of growth at 25 µg/mL / inhibition of growth at 50 µg/mL: Pyricularia grisea, H2O, 24 h, read-out: Aktivität gegenüber M. grisea H2O
[6] = test system: Botrytis cinerea; test: microbe, parasite or virus in culture; assay type: cell-based; settings: for inhibition of growth at 5 µg/mL / inhibition of growth at 10 µg/mL / inhibition of growth at 25 µg/mL / inhibition of growth at 50 µg/mL: Botrytis cinerea, 24 h, read-out: Aktivität gegenüber B. cinerea
[7] = test system: P. infestans; test: microbe, parasite or virus in culture; assay type: cell-based, Phytophthora infestans; settings: for inhibition of growth at 5 µg/mL / inhibition of growth at 10 µg/mL / inhibition of growth at 25 µg/mL / inhibition of growth at 50 µg/mL: Phytophthora infestans, 24 h, read-out: Aktivität gegenüber P. infestans
[8] = test system: M. grisea CM; test: microbe, parasite or virus in culture; assay type: cell-based, Magnaporthe grisea; settings: for inhibition of growth at 5 µg/mL / inhibition of growth at 10 µg/mL / inhibition of growth at 25 µg/mL / inhibition of growth at 50 µg/mL: Pyricularia grisea, 24 h, read-out: Aktivität gegenüber M. grisea CM
[9] = test system: Lepidium sativum; test: Crop plant growth test, seeds on filter discs, 4 days, visual evaluation; assay type: in vivo
Method in brief: (§1)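 Compounds dried from DMSO onto filter discs; about 12 seeds per well with 200 µl sterile tap water, incubated 4 days in a humid chamber under 16 h light/8 h dark. Visual scoring: + means at least 75 % growth inhibition versus control, − means less than 75 %.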

[10] = test system: Setaria italica; test: as above; assay type: in vivo
Method in brief: as §1

[11] = test system: M. grisea; assay type: cell-based, Magnaporthe grisea; settings: medium (H2O or CM) not stated
[12] = test system: alle getesteten Pathogene; assay type: cell-based; settings: 5-50 µg/mL

SMILES | Aktivität gegenüber C. albicans ([1]; 10µg/mL) | Aktivität gegenüber C. albicans ([1]; 50µg/mL) | Aktivität gegenüber M. miehei ([2]; 10µg/mL) | Aktivität gegenüber M. miehei ([2]; 50µg/mL) | Aktivität gegenüber P. notatum ([3]; 10µg/mL) | Aktivität gegenüber P. notatum ([3]; 50µg/mL) | Aktivität gegenüber P. variotii ([4]; 10µg/mL) | Aktivität gegenüber P. variotii ([4]; 50µg/mL) | inhibition of growth at 5 µg/mL [5] [%] | inhibition of growth at 10 µg/mL [5] [%] | inhibition of growth at 25 µg/mL [5] [%] | inhibition of growth at 50 µg/mL [5] [%] | inhibition of growth at 5 µg/mL ([6]; 5µg/mL) [%] | inhibition of growth at 10 µg/mL ([6]; 10µg/mL) [%] | Aktivität gegenüber Nutzpflanzen: L. sativum ([9]; 10µg/R) | Aktivität gegenüber Nutzpflanzen: L. sativum ([9]; 20µg/R) | Aktivität gegenüber Nutzpflanzen: L. sativum ([9]; 50µg/R) | Aktivität gegenüber Nutzpflanzen: S. italica ([10]; 10µg/R) | Aktivität gegenüber Nutzpflanzen: S. italica ([10]; 20µg/R) | Aktivität gegenüber Nutzpflanzen: S. italica ([10]; 50µg/R) | other results
Cc1cc(C)c(O)c([Se]c2cc(C)cc(C)c2O)c1 [Verbindung 12, Bis(3,5-dimethyl-2-hydroxyphenyl)selen] | - | - | - | - | - | - | - | - | 0 to 25 | 0 to 25 | 0 to 25 | 0 to 25 | 0 to 25 | 0 to 25 | - (weniger als 75 % Wachstumshemmung im Vergleich zur Kontrolle) | - (weniger als 75 % Wachstumshemmung im Vergleich zur Kontrolle) | - (weniger als 75 % Wachstumshemmung im Vergleich zur Kontrolle) | - (weniger als 75 % Wachstumshemmung im Vergleich zur Kontrolle) | - (weniger als 75 % Wachstumshemmung im Vergleich zur Kontrolle) | - (weniger als 75 % Wachstumshemmung im Vergleich zur Kontrolle) | inhibition of growth at 25 µg/mL ([6]; 25µg/mL): 0 to 25%; inhibition of growth at 50 µg/mL ([6]; 50µg/mL): 0 to 25%; inhibition of growth at 5 µg/mL [7]: 0 to 25%; inhibition of growth at 10 µg/mL [7]: > 75%; inhibition of growth at 25 µg/mL [7]: > 75%; inhibition of growth at 50 µg/mL [7]: > 75%; inhibition of growth at 5 µg/mL [8]: > 75%; inhibition of growth at 10 µg/mL [8]: > 75%; inhibition of growth at 25 µg/mL [8]: > 75%; inhibition of growth at 50 µg/mL [8]: > 75%; Aktivität gegenüber M. grisea [11]: hohe Aktivität
Oc1c(F)cc(F)cc1[Se]c1cc(F)cc(F)c1O [Verbindung 25, Bis(3,5-difluoro-2-hydroxyphenyl)selen] | - | + | + | + | + | + | + | - |  |  |  |  |  |  | - (weniger als 75 % Wachstumshemmung im Vergleich zur Kontrolle) | + (mind. 75 % Wachstumshemmung im Vergleich zur Kontrolle) | - (weniger als 75 % Wachstumshemmung im Vergleich zur Kontrolle) | - (weniger als 75 % Wachstumshemmung im Vergleich zur Kontrolle) | + (mind. 75 % Wachstumshemmung im Vergleich zur Kontrolle) | - (weniger als 75 % Wachstumshemmung im Vergleich zur Kontrolle) | Aktivität gegenüber M. grisea H2O ([5]; 5µg/mL): +++ (mehr als 75 % der Sporen nicht gekeimt); Aktivität gegenüber M. grisea H2O ([5]; 10µg/mL): +++ (mehr als 75 % der Sporen nicht gekeimt); Aktivität gegenüber M. grisea H2O ([5]; 25µg/mL): +++ (mehr als 75 % der Sporen nicht gekeimt); Aktivität gegenüber M. grisea H2O ([5]; 50µg/mL): +++ (mehr als 75 % der Sporen nicht gekeimt); mikrobizide Wirksamkeit gegenüber B. cinerea [6]: mikrobizide Wirksamkeit; Aktivität gegenüber B. cinerea ([6]; 5µg/mL): + (key: +++: mehr als 75 % der Sporen nicht gekeimt; ++: zwischen 50 und 75 % der Sporen nicht gekeimt; +: zwischen 25 und 50 % der Sporen nicht gekeimt; -: zwischen 0 und 25 % der Sporen nicht gekeimt); Aktivität gegenüber B. cinerea ([6]; 10µg/mL): +++ (key: +++: mehr als 75 % der Sporen nicht gekeimt; ++: zwischen 50 und 75 % der Sporen nicht gekeimt; +: zwischen 25 und 50 % der Sporen nicht gekeimt; -: zwischen 0 und 25 % der Sporen nicht gekeimt); Aktivität gegenüber B. cinerea ([6]; 25µg/mL): +++ (key: +++: mehr als 75 % der Sporen nicht gekeimt; ++: zwischen 50 und 75 % der Sporen nicht gekeimt; +: zwischen 25 und 50 % der Sporen nicht gekeimt; -: zwischen 0 und 25 % der Sporen nicht gekeimt); Aktivität gegenüber B. cinerea ([6]; 50µg/mL): +++ (key: +++: mehr als 75 % der Sporen nicht gekeimt; ++: zwischen 50 und 75 % der Sporen nicht gekeimt; +: zwischen 25 und 50 % der Sporen nicht gekeimt; -: zwischen 0 und 25 % der Sporen nicht gekeimt); Aktivität gegenüber P. infestans ([7]; 5µg/mL): +++ (mehr als 75 % der Sporen nicht gekeimt); Aktivität gegenüber P. infestans ([7]; 10µg/mL): +++ (mehr als 75 % der Sporen nicht gekeimt); Aktivität gegenüber P. infestans ([7]; 25µg/mL): +++ (mehr als 75 % der Sporen nicht gekeimt); Aktivität gegenüber P. infestans ([7]; 50µg/mL): +++ (mehr als 75 % der Sporen nicht gekeimt); Aktivität gegenüber M. grisea CM ([8]; 5µg/mL): +++ (mehr als 75 % der Sporen nicht gekeimt); Aktivität gegenüber M. grisea CM ([8]; 10µg/mL): +++ (mehr als 75 % der Sporen nicht gekeimt); Aktivität gegenüber M. grisea CM ([8]; 25µg/mL): +++ (mehr als 75 % der Sporen nicht gekeimt); Aktivität gegenüber M. grisea CM ([8]; 50µg/mL): +++ (mehr als 75 % der Sporen nicht gekeimt); Effekt auf L. sativum ([9]; […]): deutlichen negativen Effekt; Effekt auf S. italica ([10]; […]): deutlichen negativen Effekt; Aktivität im Wachstums- und Keimungshemmungstest gegen die getesteten Pathogene [12]: durchgehende Aktivität gegen alle Pathogene
COc1cc(OC)c([Se]c2cc(OC)c(OC)cc2OC)cc1OC [Verbindung 26, Bis(2,4,5-trimethoxyphenyl)selen] | - | - | - | + | - | - | - | - | 25 to 50 | > 75 | > 75 | > 75 | 0 to 25 | 0 to 25 | - (weniger als 75 % Wachstumshemmung im Vergleich zur Kontrolle) | - (weniger als 75 % Wachstumshemmung im Vergleich zur Kontrolle) | - (weniger als 75 % Wachstumshemmung im Vergleich zur Kontrolle) | - (weniger als 75 % Wachstumshemmung im Vergleich zur Kontrolle) | - (weniger als 75 % Wachstumshemmung im Vergleich zur Kontrolle) | - (weniger als 75 % Wachstumshemmung im Vergleich zur Kontrolle) | Aktivität im Wachstumstest mit M. miehei ([2]; […]): mikrobizide Wirksamkeit; inhibition of growth at 25 µg/mL ([6]; 25µg/mL): 0 to 25%; inhibition of growth at 50 µg/mL ([6]; 50µg/mL): 0 to 25%; inhibition of growth at 5 µg/mL [7]: 0 to 25%; inhibition of growth at 10 µg/mL [7]: 0 to 25%; inhibition of growth at 25 µg/mL [7]: 0 to 25%; inhibition of growth at 50 µg/mL [7]: 0 to 25%; Wirksamkeit gegenüber P. infestans ([7]; […]): keine Wirkung; inhibition of growth at 5 µg/mL [8]: 25 to 50%; inhibition of growth at 10 µg/mL [8]: > 75%; inhibition of growth at 25 µg/mL [8]: > 75%; inhibition of growth at 50 µg/mL [8]: > 75%; Aktivität im Wachstums- und Keimungshemmungstest gegen die getesteten Pathogene [12]: fungizider Effekt
